# Test system: A549
# Assay: Cytotoxicity against human A549 cells incubated for 24 hrs by CCK8 assay
# Format: functional, cell-based
# Conditions: A549, 24 h
structure (smiles),measurement,value
CCCCC[C@@H]1CCCCCCCCCC(=O)O[C@H]2[C@H](OC[C@H]3O[C@@H](O[C@H]4[C@H](O)[C@@H](CO)O[C@@H](O[C@H]5[C@H](O1)O[C@H](C)[C@@H](O)[C@@H]5O)[C@@H]4O[C@@H]1O[C@@H](C)[C@H](OC(=O)[C@@H](C)CC)[C@@H](O[C@@H]4O[C@H](CO)[C@@H](OC(=O)[C@@H](C)CC)[C@H](O)[C@H]4O)[C@H]1OC(=O)[C@@H](C)CC)[C@H](O)[C@@H](O)[C@@H]3OC(=O)[C@@H](C)[C@H](C)O)O[C@H](CO)[C@@H](OC(=O)[C@@H](C)CC)[C@@H]2O,IC50,5.2 µM

# — ChEMBL document CHEMBL5120870, “Calysepins I-VII, Hexasaccharide Resin Glycosides from Calystegia sepium and Their Cytotoxic Evaluation” (J Nat Prod, 2022)
